Measurements: patent US20090111105A1 (priority 2007, published 2009)

Tests used:
male sexual behaviour = conditions: in comparison with testosterone; Arteaga-Silva et al. 2005; cited from earlier work
prostate = conditions: Arteaga-Silva et al. 2005; cited from earlier work
androgen receptor (AR) = molecular target: T1, androgen receptor (AR) (Homo sapiens, UniProt P10275); conditions: SH-SY5Y cells, 1f-pGI3 + pSG5AR, FIG. 8 and FIG. 10
T1 sequence (P10275 1-920): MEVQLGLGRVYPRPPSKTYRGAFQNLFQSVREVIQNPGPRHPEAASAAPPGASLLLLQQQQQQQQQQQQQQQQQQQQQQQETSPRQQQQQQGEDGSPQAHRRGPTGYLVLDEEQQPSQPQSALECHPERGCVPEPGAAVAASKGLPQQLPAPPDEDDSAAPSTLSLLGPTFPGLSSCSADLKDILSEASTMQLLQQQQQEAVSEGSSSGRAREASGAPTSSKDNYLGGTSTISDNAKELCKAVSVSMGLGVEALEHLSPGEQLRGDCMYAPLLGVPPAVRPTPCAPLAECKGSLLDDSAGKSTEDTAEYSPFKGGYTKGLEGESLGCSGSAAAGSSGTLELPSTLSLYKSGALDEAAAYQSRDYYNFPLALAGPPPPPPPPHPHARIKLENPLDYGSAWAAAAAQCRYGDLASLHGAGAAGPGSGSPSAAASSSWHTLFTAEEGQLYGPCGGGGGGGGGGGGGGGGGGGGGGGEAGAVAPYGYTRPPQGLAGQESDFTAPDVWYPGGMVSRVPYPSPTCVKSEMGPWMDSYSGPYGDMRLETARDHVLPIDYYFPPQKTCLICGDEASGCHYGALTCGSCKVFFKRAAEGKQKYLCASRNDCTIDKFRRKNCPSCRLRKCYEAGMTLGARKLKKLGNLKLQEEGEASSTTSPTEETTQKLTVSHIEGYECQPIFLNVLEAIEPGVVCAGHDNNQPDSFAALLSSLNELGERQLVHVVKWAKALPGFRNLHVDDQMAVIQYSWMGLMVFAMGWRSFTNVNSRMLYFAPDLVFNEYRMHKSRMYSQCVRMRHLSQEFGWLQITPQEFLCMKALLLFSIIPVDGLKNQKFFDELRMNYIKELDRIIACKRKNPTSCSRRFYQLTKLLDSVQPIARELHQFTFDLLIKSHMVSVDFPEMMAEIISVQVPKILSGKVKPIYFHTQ

In the case of `C[C@]12CCC(=O)C[C@@H]1CC[C@@H]1[C@@H]2CC[C@]2(C)[C@@H](O)CC[C@@H]12` [DHT, dihydrotestosterone], the “action on male sexual behaviour” value (male sexual behaviour) is given as “considerably less action” and the “androgenic action on the prostate” value (prostate) is given as “very strong androgen”.
In the case of `CCC(=O)O[C@H]1CC[C@H]2[C@@H]3CCC4=CC(=O)CC[C@]4(C)[C@H]3CC[C@]12C` [testosterone propionate], the “induction of reporter gene expression on the 1f-promoter” value (androgen receptor (AR)) is reported as “very potent stimulation”.
